# Reference: patent US20120003270A1, “6-SUBSTITUTED ISOFLAVONOID COMPOUNDS AND USES THEREOF” (priority 2008, published 2012)
# Columns and labels:
# [1] = Free radical scavenging (DPPH); assay type: biochemical; settings: DPPH 0.1 mM, 20 minutes, 517 nm; read-out: Free radical scavenging ability EC50
# Procedure: The antioxidant (free radical trapping) activity of test compounds was assessed using the stable free radical compound 2,2-diphenyl-1-picrylhydrazyl (DPPH). A stock solution of DPPH was prepared at a concentration of 0.1 mM in ethanol and mixed for 10 minutes prior to use. Compound (1) was reacted with DPPH for 20 minutes, after which time the absorbance at 517 nm was determined. The change in absorbance at 517 nm was compared to a reagent blank (DPPH with ethanol alone). The IC50 value was estimated as the concentration of the test compound that caused a 0.6 change in absorbance (with 1.2 absorbance units representing total scavenging of the DPPH radical).
# PGE2 = PGE2 synthesis in RAW 264.7 (ELISA); assay type: cell-based, mouse; settings: LPS 50 ng/ml, 16 hrs
# Procedure: The mouse macrophage cell line RAW 264.7 was cultured in DMEM supplemented with foetal calf serum (FCS), 2 mM glutamine and 50 U/ml penicillin/streptomycin. Cells were treated with either test compounds (in 0.025% DMSO) or vehicle alone, and added one hour before 50 ng/ml LPS. After incubation for 16 hrs, culture media was collected for PGE2 or TXB2 measurement by ELISA (Cayman Chemical), and TNFα measurement using an ELISA (Becton Dickinson).
# [2] = test system: neonatal fibroblast foreskin (NFF); test: Toxicity in normal cells (MTT), NFF; assay type: cell-based; settings: Homo sapiens, 120 h, 5 days, top concentration 150 μM, read-out: Normal cell viability IC50
# Procedure: Human neonatal fibroblast foreskin (NFF—a gift from Dr. Peter Parsons, Queensland Institute of Medical Research) or rabbit kidney (RK-13—a gift from Prof. Miller Whalley, Macquarie University) cells were seeded into 96 well plates and cultured in RPMI supplemented with 10% FCS (CSL, Australia), penicillin (100 U/ml), streptomycin ([…]), L-glutamine (2 mM) and sodium bicarbonate (1.2 g/L) at 37° C. and 5% CO2 for 24 hours until cells had attached and entered log phase of growth. Test compounds were added in serial two-fold dilutions from 150 μM in triplicate and incubated for a further 5 days. MTT was then added to each well, incubated for 3 hours at 37° C., after which the medium was tipped off. Following the addition of DMSO, the absorbance for each well was read on a plate reader. The assays were repeated at least twice.
# [3] = Pharmacokinetics after a single oral dose in mice; assay type: in vivo, mouse; settings: serum
# Procedure: The pharmacokinetic (PK) profiles of compounds (1) and (3) were examined following oral administration in PEG 400/PBS 1:1 at a dose of 25 mg/kg. For each experiment, three animals were allocated per time point (15 min, 30 min, 60 min, 90 min, 4 hr and 24 hr). Mice were killed using cervical dislocation and serum collected via cardiac puncture. Faeces and urine, where available, were also collected. Samples were stored at −80° C. and analysed by LC-MS in-house. The limit of detection was 20 ng/ml.
# In Table 23 (and Table 24), “AUC” represents the area under the serum concentration versus time curve, expressed as μM*hour/L. This number assesses absorption and clearance in a relative way. The higher the number, the more compound has been absorbed and the longer it has remained in circulation. “AUCfree” refers to the area under the curve for unconjugated or free analogue, whereas “AUCtotal” refers to the area under the curve for the free and conjugated analogue combined.
# “[max]” refers to the maximum concentration observed in serum. These measurements also give some understanding of how well a compound is absorbed.
# The ratio of the AUCfree to the AUCtotal gives a relative measure of how much of the administered compound i.e. ‘free’ remains either in circulation compared to how much of the compound is conjugated.
# “t1/2” is the half life, i.e. the time taken for the serum concentration to fall by half. The elimination of a drug is usually an exponential (logarithmic) process, so that a constant proportion is eliminated per unit time. […] The first refers to the t1/2 of the unconjugated analogue and the second the t1/2 of the total (free plus conjugated) analogue.
# [4] = test system: low density lipoprotein (LDL); test: Cu2+-induced oxidation of LDL (FOX assay); assay type: biochemical; set-up: lipid peroxide formation: unit not given here
# Procedure: Blood was collected by venipuncture and plasma separated by centrifugation. LDL was then isolated from plasma using a 4-step sodium chloride density gradient and ultracentrifuged at 200,000 g for 20 hours at 4° C. The collect LDL was purified by passage through gel filtration PD10 column to remove excess salt and EDTA, and stored in the dark at 4° C. to prevent auto-oxidation and used with two weeks of isolation. The LDL cholesterol content was measure using a standard enzymatic method and protein concentration determined by the Lowry method using BSA as the standard.
# On the day of each experiment a 2 mL aliquot of LDL was passed through a second PD10 column and diluted with chelex treated PBS (100 mM) to give a standard protein concentration of 0.1 mg/mL, ie final concentration per reaction. Oxidation reactions were initiated by the addition of freshly prepared Cu^2+ solution, such that the final concentration of CuSO4 was 5 μM. […] The extent of lipoprotein oxidation was determined by measuring the formation of lipid-peroxides on aliquots removed every 30-minute over a 3-hour period. Peroxides were determined at each time point by the ferrous oxidation-xylenol orange (FOX) assay using standard hydrogen peroxide curve (5 to 200 μM). Compound (1) was examined in at least two separate experiments performed on separate days.
structure (smiles),measurement,setting,value
O=C(O)C1CCCN1Cc1cc2c(cc1O)OCC(c1ccc(O)cc1)=C2 (stereo not drawn) [Compound (3)],EC50,[1],13.6 µM
same,PGE2,PGE2; 1 μM,2890.02 ± 320.91 pg/mL
same,PGE2,PGE2; 10 μM,2031.43 ± 261.59 pg/mL
same,IC50,[2],111 ± 67.1 µM
same,half-life,"[3]; mouse, oral, 25 mg/kg, unconjugated, one phase exponential decay, read-out: t1/2 (free)",28 min
same,AUC,"[3]; mouse, oral 25 mg/kg in PEG 400/PBS 1:1",0.108 µM·h
same,AUCfree/AUCtotal,[3]; oral 25 mg/kg,12%
same,"[max]free (μM, mean ± SD)",[3]; oral 25 mg/kg,0.03 ± 0.01 µM
same,lipid peroxide formation,"[4]; Compound (3) 10 μM + Cu++ 5 μM, no LDL, 0 min",2.36 ± 5.25
same,lipid peroxide formation,"[4]; Compound (3) 10 μM + Cu++ 5 μM, no LDL, 30 min",−3.75 ± 3.02
same,lipid peroxide formation,"[4]; Compound (3) 10 μM + Cu++ 5 μM, no LDL, 60 min",−1.38 ± 2.64
same,lipid peroxide formation,"[4]; Compound (3) 10 μM + Cu++ 5 μM, no LDL, 90 min",−0.82 ± 2.31
same,lipid peroxide formation,"[4]; Compound (3) 10 μM + Cu++ 5 μM, no LDL, 120 min",−2.48 ± 2.55
same,lipid peroxide formation,"[4]; Compound (3) 10 μM + Cu++ 5 μM, no LDL, 150 min",−6.22 ± 6.83
same,IC50,"[4]; LDL 0.1 mg/mL, CuSO4 5 μM, read-out: IC50, concentration at which 50% of the LDL oxidation was inhibited",0.5 µM
same,lipid peroxide formation,"[4]; LDL 0.1 mg/ml + compound (3) 0.01 μM + Cu++ 5 μM, 0 min",5.55 ± 0.22
same,lipid peroxide formation,"[4]; LDL 0.1 mg/ml + compound (3) 0.01 μM + Cu++ 5 μM, 30 min",2.85 ± 2.80
same,lipid peroxide formation,"[4]; LDL 0.1 mg/ml + compound (3) 0.01 μM + Cu++ 5 μM, 60 min",25.92 ± 13.53
same,lipid peroxide formation,"[4]; LDL 0.1 mg/ml + compound (3) 0.01 μM + Cu++ 5 μM, 90 min",88.97 ± 3.03
same,lipid peroxide formation,"[4]; LDL 0.1 mg/ml + compound (3) 0.01 μM + Cu++ 5 μM, 120 min",131.94 ± 4.81
same,lipid peroxide formation,"[4]; LDL 0.1 mg/ml + compound (3) 0.01 μM + Cu++ 5 μM, 150 min",137.86 ± 26.03
same,lipid peroxide formation,"[4]; LDL 0.1 mg/ml + compound (3) 0.1 μM + Cu++ 5 μM, 0 min",5.62 ± 0.85
same,lipid peroxide formation,"[4]; LDL 0.1 mg/ml + compound (3) 0.1 μM + Cu++ 5 μM, 30 min",3.24 ± 1.93
same,lipid peroxide formation,"[4]; LDL 0.1 mg/ml + compound (3) 0.1 μM + Cu++ 5 μM, 60 min",18.89 ± 7.84
same,lipid peroxide formation,"[4]; LDL 0.1 mg/ml + compound (3) 0.1 μM + Cu++ 5 μM, 90 min",73.79 ± 1.40
same,lipid peroxide formation,"[4]; LDL 0.1 mg/ml + compound (3) 0.1 μM + Cu++ 5 μM, 120 min",138.28 ± 2.75
same,lipid peroxide formation,"[4]; LDL 0.1 mg/ml + compound (3) 0.1 μM + Cu++ 5 μM, 150 min",155.66 ± 21.85
same,lipid peroxide formation,"[4]; LDL 0.1 mg/ml + compound (3) 1.0 μM + Cu++ 5 μM, 0 min",7.38 ± 2.69
same,lipid peroxide formation,"[4]; LDL 0.1 mg/ml + compound (3) 1.0 μM + Cu++ 5 μM, 30 min",−2.09 ± 9.59
same,lipid peroxide formation,"[4]; LDL 0.1 mg/ml + compound (3) 1.0 μM + Cu++ 5 μM, 60 min",7.21 ± 4.53
same,lipid peroxide formation,"[4]; LDL 0.1 mg/ml + compound (3) 1.0 μM + Cu++ 5 μM, 90 min",7.13 ± 3.76
same,lipid peroxide formation,"[4]; LDL 0.1 mg/ml + compound (3) 1.0 μM + Cu++ 5 μM, 120 min",11.69 ± 7.30
same,lipid peroxide formation,"[4]; LDL 0.1 mg/ml + compound (3) 1.0 μM + Cu++ 5 μM, 150 min",79.63 ± 27.82
same,lipid peroxide formation,"[4]; LDL 0.1 mg/ml + compound (3) 10 μM + Cu++ 5 μM, 0 min",1.62 ± 4.14
same,lipid peroxide formation,"[4]; LDL 0.1 mg/ml + compound (3) 10 μM + Cu++ 5 μM, 30 min",2.59 ± 2.96
same,lipid peroxide formation,"[4]; LDL 0.1 mg/ml + compound (3) 10 μM + Cu++ 5 μM, 60 min",5.65 ± 2.55
same,lipid peroxide formation,"[4]; LDL 0.1 mg/ml + compound (3) 10 μM + Cu++ 5 μM, 90 min",4.40 ± 1.13
same,lipid peroxide formation,"[4]; LDL 0.1 mg/ml + compound (3) 10 μM + Cu++ 5 μM, 120 min",3.57 ± 2.23
same,lipid peroxide formation,"[4]; LDL 0.1 mg/ml + compound (3) 10 μM + Cu++ 5 μM, 150 min",4.15 ± 2.87
